How the values were obtained:
firefly luciferase = test: Luciferase assay in stably transduced luciferase HEK-293T cells; type: cell-based
Method: Firefly luciferase and firefly luciferase-eDHFR were cloned into pBABE-puro vector which was a gift from Hartmut Land & Jay Morgenstern & Bob Weinberg (Addgene plasmid #1764). pBABE-puro-luciferase was co-transfected with VSV-G into GP2-293 cells (Retro-X Universal Packaging System, Clonetech, Mountain View, Calif.) with TransIT-2020 (MirusBio) according to TransIT-2020's manufacture's protocol. After 48 h, viral supernatant was harvested, spun down, filtered with a […] syringe filter, and added to HEK-293T supplemented with 8 μg/mL polybrene. After 4 h of infection, the media was replaced with fresh media. 48 h later, media was replaced with media containing 3 μg/mL puromycin. Media was replaced with fresh media containing puromycin every 3-4 days. After 2 weeks of puromycin selection, the cells were grown out from single cell colonies and screened for luciferase expression.
Stably transduced luciferase HEK-293T cells were plated in 96-well plates 24 h prior to treatment with 100 μM of Cbz-B3A, amine-B3A, acetyl-B3A, and Cbz-acetyl. After 4 h, cells were harvested and measured with Luciferase Assay System with Reporter Lysis Buffer from Promega according to the manufacturer's protocol. Before the addition of luciferin, protein concentration was measured by removing 2 μl of lysate from each well and adding it to diluted Bio-Rad Protein Assay Dye Reagent Concentrate, and the absorbance was measured at OD595. The protein concentration was used to normalize luciferase signal. For translation assays, cells were pretreated for 15 min with 100 μg/mL cycloheximide or 6 μM bortezomib. For the recombinant luciferase assay, Quantilum Recombinant Luciferase (Promega) was diluted 1:250,000 in reporter lysis buffer with 1 mg/mL BSA then mixed 1:1 with 200 μM compound in the same buffer for a final dilution of 1:500,000 and 100 μM compound in 20 μL. This was incubated for 10 min at room temperature then measured with Luciferase Assay System with Reporter Lysis Buffer from Promega according to the manufacturer's protocol.

[1] = system: 4EBP1 phosphorylation by mTORC1; test: 4EBP1 phosphorylation immunoblot in HEK-293T cells; type: cell-based; details: 4 h
Method: Quantification of western blots was performed with ImageJ. Cells were lysed in RIPA buffer (1% NP-40, 1% NaDeoxycholate, 0.1% SDS, 10 mM TrisCl, 10 mM β-glycerophosphate, 10 mM Na pyrophosphate, 50 mM NaF, 200 μM Na vanadate, 1 mM EDTA, 500 μM EGTA, 1% benzonase, and supplemented with complete (Roche Diagnostics) protease inhibitors).

ubiquilin 4 = target: T1, ubiquilin 4 (Homo sapiens, UniProt Q9NRR5); test: Cellular thermal shift assay (CETSA) in HEK-293T lysate; type: binding; details: 100 μM Cbz-B3A, lysate incubated 30 min
T1 construct: endogenous in cells; host or cells: HEK-293T lysate
Method: CETSA was performed as previously described. Briefly, HEK-293T cells were lysed in DPBS with Roche complete protease inhibitor by 3 quick freeze thaws, centrifuged at 20,000 g for 20 min at 4° C., and the supernatant was adjusted to 4 mg/mL. Lysate was incubated with compound for 30 min and heated to different temperatures in a thermal cycler for 3 min, then cooled to room temperature for 3 min. All samples were then centrifuged at 20,000 g for 20 min at 4° C. and a western blot was run on the supernatant.

NCI-60 cell lines = test: NCI-60 DTP Human Tumor Cell Line Screen, all cell lines; type: cell-based; details: 10 μM, 48 h
Method: (§1) Screen was conducted as previously described, performed at Developmental Therapeutics Program NCI/NIH.

K562 cells = test: NCI-60 DTP Human Tumor Cell Line Screen, K562; type: cell-based; details: 48 h, read-out: inhibition of proliferation, K562
Method: as §1

T1 sequence (Q9NRR5 whole entry): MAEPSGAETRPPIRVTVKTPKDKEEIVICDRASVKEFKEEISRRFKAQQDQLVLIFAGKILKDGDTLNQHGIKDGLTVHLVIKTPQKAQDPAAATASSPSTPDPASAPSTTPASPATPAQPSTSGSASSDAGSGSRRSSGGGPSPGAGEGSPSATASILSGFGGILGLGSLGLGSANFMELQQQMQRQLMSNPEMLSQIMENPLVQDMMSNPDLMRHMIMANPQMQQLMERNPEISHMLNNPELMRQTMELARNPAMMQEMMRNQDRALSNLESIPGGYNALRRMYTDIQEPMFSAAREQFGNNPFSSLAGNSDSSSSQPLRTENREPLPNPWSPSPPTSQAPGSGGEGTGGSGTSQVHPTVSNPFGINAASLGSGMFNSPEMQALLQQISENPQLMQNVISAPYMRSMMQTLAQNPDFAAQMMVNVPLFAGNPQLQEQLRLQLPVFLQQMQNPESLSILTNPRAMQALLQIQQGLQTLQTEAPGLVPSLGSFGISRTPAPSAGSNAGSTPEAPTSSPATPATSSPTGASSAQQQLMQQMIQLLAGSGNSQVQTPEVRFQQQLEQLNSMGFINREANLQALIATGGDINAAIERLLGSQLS

CC(C)(C)OC(=O)/N=C(\NCCC[C@H](NC(=O)OC(C)(C)C)C(=O)NCCCCCCNC(=O)OCc1ccccc1)NC(=O)OC(C)(C)C [Cbz-B3A]
firefly luciferase signal, co-treatment with bortezomib compared to bortezomib alone (firefly luciferase; 6 μM bortezomib pretreatment 15 min, then 100 μM Cbz-B3A 4 h): decreased | luciferase activity, co-treatment with cycloheximide (firefly luciferase; 100 μg/mL cycloheximide pretreatment 15 min, then 100 μM Cbz-B3A 4 h): no further decrease in luciferase activity | wild type luciferase signal (firefly luciferase; HEK-293T cells expressing HA-luciferase, 100 μM, 4 h): decreased the wild type luciferase signal | 4EBP1 phosphorylation (hyper- vs hypo-phosphorylated band) ([1]; Cbz-B3A 10 μM, Cbz-acetyl 10 μM, rapamycin 20 nM): clear shift from hyper-phosphorylation to hypo-phosphorylation | EC50 ([1]; Homo sapiens, HEK-293T, read-out: EC50 of inhibition of 4EBP1 phosphorylation): ~2 µM | melting temperature shift of ubiquilin 4 (ubiquilin 4): clear shift to a lower melting temperature | average decrease in proliferation, all cell lines (NCI-60 cell lines): 29% | inhibition at 10 µM (K562 cells): 39%
